In PubChem BioAssay (NCI):
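The compound was tested at five concentrations on cells cultured in 96-well plates, with a 48-hour exposure period. Here, GI50 denotes the concentration required for 50% inhibition of growth. TGI marks complete inhibition of growth.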

Key:
Assay in all cases: NCI tumour cell line growth inhibition, 48 h
[1] = tested on: 786-0 renal
[2] = tested on: A498 renal
[3] = tested on: A549 NSCLC
[4] = tested on: ACHN renal
[5] = tested on: BT-549 breast
[6] = tested on: CAKI-1 renal
[7] = tested on: CCRF-CEM leukemia
[8] = tested on: COLO 205 colon
[9] = tested on: DU-145 prostate
[10] = tested on: EKVX NSCLC
[11] = tested on: HCC-2998 colon
[12] = tested on: HCT-116 colon
[13] = tested on: HCT-15 colon
[14] = tested on: HL-60(TB) leukemia
[15] = tested on: HOP-62 NSCLC
[16] = tested on: HOP-92 NSCLC
[17] = tested on: HS 578T breast
[18] = tested on: HT29 colon
[19] = tested on: IGROV1 ovarian
[20] = tested on: K-562 leukemia
[21] = tested on: KM12 colon
[22] = tested on: LOX IMVI melanoma
[23] = tested on: M14 melanoma
[24] = tested on: MALME-3M melanoma
[25] = tested on: MCF7 breast
[26] = tested on: MDA-MB-231 breast
[27] = tested on: MDA-MB-435
[28] = tested on: MDA-MB-468 breast
[29] = tested on: MOLT-4 leukemia
[30] = tested on: NCI-H226 lung
[31] = tested on: NCI-H23 lung
[32] = tested on: NCI-H460 lung
[33] = tested on: NCI-H522 lung
[34] = tested on: NCI/ADR-RES ovarian
[35] = tested on: OVCAR-3 ovarian
[36] = tested on: OVCAR-4 ovarian
[37] = tested on: OVCAR-5 ovarian
[38] = tested on: OVCAR-8 ovarian
[39] = tested on: PC-3 prostate
[40] = tested on: RPMI-8226 leukemia
[41] = tested on: RXF 393 renal
[42] = tested on: SF-268 CNS
[43] = tested on: SF-295 CNS
[44] = tested on: SF-539 CNS
[45] = tested on: SK-MEL-2 melanoma
[46] = tested on: SK-MEL-28 melanoma
[47] = tested on: SK-MEL-5 melanoma
[48] = tested on: SK-OV-3 ovarian
[49] = tested on: SN12C renal
[50] = tested on: SNB-19 CNS
[51] = tested on: SNB-75 CNS
[52] = tested on: SR leukemia
[53] = tested on: SW-620 colon
[54] = tested on: T-47D breast
[55] = tested on: TK-10 renal
[56] = tested on: U251 CNS
[57] = tested on: UACC-257 melanoma
[58] = tested on: UACC-62 melanoma
[59] = tested on: UO-31 renal

Question: For O=C(CSc1nnc(-c2ccc(-c3nc4ccc(Cl)cc4[nH]3)cc2)o1)Nc1ccc(Cl)cc1, which GI50 [1] is on record?
Answer: 2.21 µM

Question: What about the TGI [1] of the same compound?
Answer: 5.57 µM

Question: And the GI50 [2]?
Answer: 16.2 µM

Question: And the TGI [2]?
Answer: 30.6 µM

Question: And the GI50 [3]?
Answer: 1.8 µM

Question: And the TGI [3]?
Answer: 3.97 µM

Question: And the GI50 [4]?
Answer: 1.91 µM

Question: And the TGI [4]?
Answer: 4.9 µM

Question: What about the GI50 [5] of the same compound?
Answer: 2.15 µM

Question: And the TGI [5]?
Answer: 6.23 µM

Question: And the GI50 [6]?
Answer: 2.43 µM

Question: And the TGI [6]?
Answer: 8.47 µM

Question: What about the GI50 [7] of the same compound?
Answer: 2.59 µM

Question: And the TGI [7]?
Answer: 11 µM

Question: And the GI50 [8]?
Answer: 11.8 µM

Question: And the TGI [8]?
Answer: 36 µM

Question: What about the GI50 [9] of the same compound?
Answer: 4.14 µM

Question: And the TGI [9]?
Answer: 15.6 µM

Question: What about the GI50 [10] of the same compound?
Answer: 2.7 µM

Question: And the TGI [10]?
Answer: 12.7 µM

Question: What about the GI50 [11] of the same compound?
Answer: 11.2 µM

Question: What about the TGI [11] of the same compound?
Answer: 27.3 µM

Question: And the GI50 [12]?
Answer: 2.92 µM

Question: What about the TGI [12] of the same compound?
Answer: 11.8 µM

Question: What about the GI50 [13] of the same compound?
Answer: 2.41 µM

Question: What about the TGI [13] of the same compound?
Answer: 11.6 µM

Question: What about the GI50 [14] of the same compound?
Answer: 2.82 µM

Question: What about the TGI [14] of the same compound?
Answer: 12.5 µM

Question: And the GI50 [15]?
Answer: 1.62 µM

Question: And the TGI [15]?
Answer: 3.69 µM

Question: What about the GI50 [16] of the same compound?
Answer: 2.35 µM

Question: What about the TGI [16] of the same compound?
Answer: 9.26 µM

Question: What about the GI50 [17] of the same compound?
Answer: 2.27 µM

Question: And the TGI [17]?
Answer: 7.65 µM

Question: And the GI50 [18]?
Answer: 3.2 µM

Question: What about the TGI [18] of the same compound?
Answer: 10.9 µM

Question: What about the GI50 [19] of the same compound?
Answer: 4.66 µM

Question: And the TGI [19]?
Answer: 18.4 µM

Question: And the GI50 [20]?
Answer: 2.19 µM

Question: And the TGI [20]?
Answer: 11.1 µM

Question: What about the GI50 [21] of the same compound?
Answer: 4.05 µM

Question: What about the TGI [21] of the same compound?
Answer: 18.5 µM

Question: What about the GI50 [22] of the same compound?
Answer: 1.4 µM

Question: And the TGI [22]?
Answer: 2.8 µM

Question: What about the GI50 [23] of the same compound?
Answer: 3.05 µM

Question: And the TGI [23]?
Answer: 11 µM

Question: And the GI50 [24]?
Answer: 1.85 µM

Question: And the TGI [24]?
Answer: 4.31 µM

Question: What about the GI50 [25] of the same compound?
Answer: 2.82 µM

Question: And the TGI [25]?
Answer: 13.3 µM

Question: And the GI50 [26]?
Answer: 1.63 µM

Question: What about the TGI [26] of the same compound?
Answer: 3.49 µM

Question: And the GI50 [27]?
Answer: 3.07 µM

Question: And the TGI [27]?
Answer: 10.6 µM

Question: What about the GI50 [28] of the same compound?
Answer: 2.37 µM

Question: What about the TGI [28] of the same compound?
Answer: 8.01 µM

Question: What about the GI50 [29] of the same compound?
Answer: 2.81 µM

Question: And the TGI [29]?
Answer: 14.3 µM

Question: And the GI50 [30]?
Answer: 1.6 µM

Question: And the TGI [30]?
Answer: 4.36 µM

Question: And the GI50 [31]?
Answer: 1.99 µM

Question: And the TGI [31]?
Answer: 4.74 µM

Question: What about the GI50 [32] of the same compound?
Answer: 1.96 µM

Question: What about the TGI [32] of the same compound?
Answer: 4.29 µM

Question: And the GI50 [33]?
Answer: 1.85 µM

Question: And the TGI [33]?
Answer: 5.47 µM

Question: And the GI50 [34]?
Answer: 4.01 µM

Question: What about the TGI [34] of the same compound?
Answer: 18.9 µM

Question: What about the GI50 [35] of the same compound?
Answer: 3.18 µM

Question: And the TGI [35]?
Answer: 10.6 µM

Question: What about the GI50 [36] of the same compound?
Answer: 4.48 µM

Question: And the TGI [36]?
Answer: 19.3 µM

Question: And the GI50 [37]?
Answer: 3.11 µM

Question: What about the TGI [37] of the same compound?
Answer: 14.6 µM

Question: What about the GI50 [38] of the same compound?
Answer: 2.04 µM

Question: What about the TGI [38] of the same compound?
Answer: 5.16 µM

Question: What about the GI50 [39] of the same compound?
Answer: 1.9 µM

Question: And the TGI [39]?
Answer: 5.37 µM

Question: What about the GI50 [40] of the same compound?
Answer: 3.99 µM

Question: What about the TGI [40] of the same compound?
Answer: 17.4 µM

Question: And the GI50 [41]?
Answer: 1.93 µM

Question: And the TGI [41]?
Answer: 5 µM

Question: And the GI50 [42]?
Answer: 3.04 µM

Question: And the TGI [42]?
Answer: 11.7 µM

Question: And the GI50 [43]?
Answer: 1.99 µM

Question: What about the TGI [43] of the same compound?
Answer: 5.23 µM

Question: And the GI50 [44]?
Answer: 1.67 µM

Question: What about the TGI [44] of the same compound?
Answer: 3.15 µM

Question: And the GI50 [45]?
Answer: 3.02 µM

Question: And the TGI [45]?
Answer: 13.1 µM

Question: And the GI50 [46]?
Answer: 1.53 µM

Question: And the TGI [46]?
Answer: 3.33 µM

Question: And the GI50 [47]?
Answer: 2.92 µM

Question: What about the TGI [47] of the same compound?
Answer: 11.2 µM

Question: And the GI50 [48]?
Answer: 5.93 µM

Question: And the TGI [48]?
Answer: 20.8 µM

Question: And the GI50 [49]?
Answer: 1.72 µM

Question: And the TGI [49]?
Answer: 4.03 µM

Question: What about the GI50 [50] of the same compound?
Answer: 3.45 µM

Question: And the TGI [50]?
Answer: 12.3 µM

Question: What about the GI50 [51] of the same compound?
Answer: 2.33 µM

Question: What about the TGI [51] of the same compound?
Answer: 8.66 µM

Question: What about the GI50 [52] of the same compound?
Answer: 1.85 µM

Question: What about the TGI [52] of the same compound?
Answer: 6.63 µM

Question: What about the GI50 [53] of the same compound?
Answer: 2.94 µM

Question: What about the TGI [53] of the same compound?
Answer: 14.1 µM

Question: What about the GI50 [54] of the same compound?
Answer: 2.8 µM

Question: And the TGI [54]?
Answer: 19.8 µM

Question: What about the GI50 [55] of the same compound?
Answer: 15.6 µM

Question: And the TGI [55]?
Answer: 32.2 µM

Question: And the GI50 [56]?
Answer: 1.96 µM

Question: What about the TGI [56] of the same compound?
Answer: 4.07 µM

Question: What about the GI50 [57] of the same compound?
Answer: 2.62 µM

Question: What about the TGI [57] of the same compound?
Answer: 10 µM

Question: And the GI50 [58]?
Answer: 1.7 µM

Question: What about the TGI [58] of the same compound?
Answer: 3.86 µM

Question: What about the GI50 [59] of the same compound?
Answer: 3.59 µM

Question: What about the TGI [59] of the same compound?
Answer: 15.8 µM
